From ChEMBL document CHEMBL1135428, “A new type of prodrug of catecholamines: an opportunity to improve the treatment of Parkinson's disease” (2002)
Active and inactive are the calls of the source. The calls are words filed in the database; no cut-off is given here.

Experiments:
Rattus norvegicus [1] = assay: Dopamine (DA) agonistic activity (% decrease in endogenous dopamine level) after peroral administration at a dose of 1.2 uM/kg; Inactive; assay type: functional, organism-based
Rattus norvegicus [2] = assay: Subcutaneously administered dose (in vivo) in male Wistar rats in a striatal microdialysis analysis and its metabolite, 5,6-di-OH-DPAT was found to be present; assay type: functional
Rattus norvegicus [3] = assay: Dopamine (DA) agonistic activity (% decrease in endogenous dopamine level) after peroral administration at a dose of 1.2 uMl/Kg; assay type: functional
Rattus norvegicus [4] = assay: Dopamine (DA) agonistic activity (% decrease in endogenous dopamine level) after peroral administration at a dose of 0.4 uM/Kg; assay type: functional

| SMILES | Decrease (Rattus norvegicus [1]) | Dose (Rattus norvegicus [2]) | Decrease (Rattus norvegicus [3]) | Decrease (Rattus norvegicus [4]) |
| --- | --- | --- | --- | --- |
| CCCN(CCC)[C@@H]1CCC2=C(CCCC2=O)C1 | inactive | 350 µM/kg | – | – |
| CCCN(CCC)[C@H]1CCC2=C(CCCC2=O)C1 | – | 35 µM/kg | 70% | 50% |
